This is an account of results in PubChem BioAssay (NCI).

What all share (test): DTP human tumour cell line panel, 48 h
In assay [1] the test system is SR leukemia.
The test system of assay [2] is SNB-19 CNS.
The subject of assay [3] is LOX IMVI melanoma.
For assay [4], the system named is SF-295 CNS.
Assay [5] deals with SF-268 CNS.
Assay [6] has as its system 786-0 renal.
Assay [7] has as its system NCI-H460 lung.
The test system of assay [8] is RXF 393 renal.

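These data come from cells grown in 96-well plates and exposed to compound for 48 hours at five concentrations. TGI is the concentration that stops growth completely.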

Consider `COc1cc(Cc2cc(OC)c(OC)c(OC)c2)ccc1O`, for which the TGI (usually the concentration at which net growth stops) in assay [1] is > 100 µM; in assay [2], > 100 µM; in assay [3] it was > 100 µM; in assay [4], 28.6 µM; in assay [5] it was > 100 µM; in assay [6], > 100 µM.
On to `CSc1nc(NC2OC(COC(C)=O)C(OC(C)=O)C(OC(C)=O)C2OC(C)=O)c2c(OC(C)=O)c(C)c(=O)oc2n1` (stereo unspecified), for which the concentration for total growth inhibition (TGI) in assay [2], in assay [7], in assay [3], in assay [4], in assay [8] and in assay [6] was > 100 µM throughout.
For `Cc1cccc(C(C)(C)C)c1NC(=O)CCc1n[nH]c(=S)o1`, the concentration for total growth inhibition (TGI) in assay [2], in assay [7], in assay [4], in assay [5] and in assay [6] was > 100 µM each time.
For the compound `N#Cc1cnsc1`, the TGI in assay [1], in assay [7], in assay [3], in assay [4], in assay [8] and in assay [5] was > 100 µM throughout. In addition, the TGI in assay [6] is > 100 µM.
For `Nc1c(-c2ccc(Br)cc2)[n+]([O-])c2ccccc2[n+]1[O-]`, the TGI in assay [2], in assay [7], in assay [4], in assay [5] and in assay [6] was > 100 µM throughout.
Regarding `Cc1ccc(NC(=O)C2C(=O)N(c3ccc(C)c(C)c3)C(=O)/C2=N/O)cc1C` (stereo unspecified), the TGI was > 100 µM in assay [2]; > 100 µM in assay [7]; 38.3 µM in assay [3]; > 100 µM in assay [4]; > 100 µM in assay [8]; > 100 µM in assay [5]. The TGI in assay [6] is > 100 µM.
For `O=S(O)CCCCSSCCCCSSCCCCS(=O)O`, the TGI in assay [2], in assay [7], in assay [3], in assay [4], in assay [8] and in assay [5] was > 100 µM throughout. Also, the TGI in assay [6] was > 100 µM.
Turning to `CCOC(=O)NC(=O)c1cn(CCCOC(=O)NCCCCCCNC(=O)OCCCn2c(=O)c(C(=O)NC(=O)OCC)cn(C)c2=O)c(=O)n(C)c1=O`, the TGI in assay [7] was > 100 µM; in assay [3], > 100 µM; in assay [8], 92.4 µM; in assay [5] it was > 100 µM; in assay [6], > 100 µM.
As to `Cc1ccc(C(=O)/C=C/c2ccccc2O)c(C)c1`, the TGI in assay [2], in assay [7], in assay [3], in assay [4], in assay [8] and in assay [5] was > 100 µM throughout. In addition, the TGI in assay [6] is > 100 µM.
As for `Cc1cc(NS(=O)(=O)c2ccc(NC(=O)c3cccc4c(=O)c5ccccc5[nH]c34)cc2)no1`, the TGI is 80.8 µM in assay [1]; > 100 µM in assay [2]; > 100 µM in assay [7]; > 100 µM in assay [3]; > 100 µM in assay [5]; 38.2 µM in assay [6].
For the compound `CSc1ccc(/C=C2/C[N+](C)(C)C/C(=C/c3ccc(SC)cc3)C2=O)cc1`, the TGI in assay [1] was found to be 71.7 µM; in assay [4], 65 µM; in assay [8], 31.6 µM; in assay [5] it was 22.7 µM; in assay [6], 26.8 µM.
With `CCc1cccc(C)c1NC(C)=O`, the TGI in assay [7], in assay [4], in assay [8] and in assay [6] was > 100 µM throughout.
For the compound `CCN(CC)C(=O)C/C(C)=N/NC(=O)c1ccncc1`, the TGI in assay [7], in assay [3], in assay [4], in assay [8], in assay [5] and in assay [6] was > 100 µM throughout.
Take `Cc1ccc(N=NC(C(=O)c2ccccc2)C(=O)c2ccccc2)cc1`: the TGI was 86.4 µM in assay [2], > 100 µM in assay [4], > 100 µM in assay [5] and 40 µM in assay [6].
With `N#CCCN(CCC#N)c1ccc(/C=C2\N=C(CN3C(=O)c4ccccc4C3=O)OC2=O)cc1`, the TGI in assay [1], in assay [2], in assay [7], in assay [3], in assay [4] and in assay [5] was > 100 µM throughout. In assay [6], the TGI was > 100 µM.
Regarding `CC(C)=CC(=O)N1CCN(C(=O)C=C(C)C)CC1`, the TGI in assay [1], in assay [2], in assay [7], in assay [3], in assay [4] and in assay [5] was > 100 µM each time. Also, in assay [6], the TGI is > 100 µM.
With `CC(=O)SCCC1c2[nH]c3ccccc3c2CCN1O` (stereo unspecified), the TGI in assay [2], in assay [7], in assay [3], in assay [4], in assay [8] and in assay [5] was > 100 µM each time. The TGI in assay [6] was > 100 µM.
